Legend:
HEK293 = experiment: Inhibition of NF-kB activation in HEK293 cells; assay type: functional, cell-based; conditions: Homo sapiens
RPMI-8226 = experiment: Cytotoxic activity against RPMI 8226 cells; assay type: functional, cell-based; conditions: Homo sapiens
Oryctolagus cuniculus [1] = organism: Oryctolagus cuniculus; experiment: Inhibition of trypsin-like (T-L) activity of rabbit 20S proteasome; assay type: functional
Oryctolagus cuniculus [2] = organism: Oryctolagus cuniculus; experiment: Inhibition of caspase-like (CA-L) activity of rabbit 20S proteasome; assay type: functional
Oryctolagus cuniculus [3] = organism: Oryctolagus cuniculus; experiment: Inhibition of chymotrypsin-like (CT-L) activity of rabbit 20S proteasome; assay type: functional

Structure (SMILES)	IC50 (HEK293) [nM]	IC50 (RPMI-8226) [nM]	IC50 (Oryctolagus cuniculus [1]) [nM]	IC50 (Oryctolagus cuniculus [2]) [nM]	IC50 (Oryctolagus cuniculus [3]) [nM]
CC[C@@]12OC(=O)[C@]1([C@@H](O)[C@@H]1C=CCCC1)NC(=O)[C@@H]2CCCl	3600	1900	3300	> 20000	2100
C[C@@]12OC(=O)[C@]1([C@@H](O)[C@@H]1C=CCCC1)NC(=O)[C@@H]2CCN=[N+]=[N-]	1000	5500	210	560	7.7
CCC[C@H]1C(=O)N[C@@]2([C@@H](O)[C@@H]3C=CCCC3)C(=O)O[C@@]12C	1900	6300	1100	1200	24
C[C@@]12OC(=O)[C@]1([C@@H](O)C1CCCCC1)NC(=O)[C@@H]2CCCl	71	52	250	1400	20
C[C@@]12OC(=O)[C@]1([C@@H](O)[C@H]1CCC[C@H](Cl)[C@H]1O)NC(=O)[C@@H]2CCCl	> 20000	> 20000	> 20000	> 20000	8200
C[C@@]12OC(=O)[C@]1(C(=O)[C@@H]1C=CCCC1)NC(=O)[C@@H]2CCCl	> 20000	> 20000	10000	> 20000	8200
C[C@@]12OC(=O)[C@]1([C@@H](O)[C@H]1CCC[C@H]3O[C@@H]13)NC(=O)[C@@H]2CCCl	34	32	92	570	6.3
C[C@@]12OC(=O)[C@]1(C(O)[C@@H]1C=CCCC1)NC(=O)[C@@H]2CCCl (some centres not stated)	> 20000	> 20000	> 20000	> 20000	> 20000
C[C@H]1C(=O)N[C@@]2([C@@H](O)[C@@H]3C=CCCC3)C(=O)O[C@@]12C	850	8500	340	1200	7.7
C[C@@]12OC(=O)[C@]1([C@@H](O)[C@@H]1C=CCCC1)NC(=O)C2CCCl (single isomer, unassigned)	3800	1900	2500	> 20000	330
C[C@@]12OC(=O)[C@]1(C(O)[C@H]1CCC[C@@H]3OC13)NC(=O)[C@@H]2CCCl (single isomer, unassigned)	300	320	770	3200	91
C[C@@]12OC(=O)C1([C@@H](O)[C@@H]1C=CCCC1)NC(=O)[C@@H]2CCO (single isomer, unassigned) [hydroxysalinosporamide A]	2600	> 20000	800	2500	8
C[C@@]12OC(=O)[C@]1([C@@H](O)[C@@H]1C=CCCC1)NC(=O)[C@@H]2CCBr [BROMOSALINOSPORAMIDE]	14	7.4	14	290	2.6
C[C@@]12OC(=O)[C@]1([C@@H](O)[C@@H]1C=CCCC1)NC(=O)[C@@H]2CCI [IODOSALINOSPORAMIDE]	10	6.8	13	410	2.8
C[C@@]12OC(=O)[C@]1([C@@H](O)[C@@H]1C=CCCC1)NC(=O)[C@@H]2CCCl [MARIZOMIB]	11	8.2	–	430	2.6
CC(C)[C@H](O)[C@@]12NC(=O)[C@H](C)[C@@H]1OC2=O [OMURALIDE]	1600	3300	540	> 10000	57
CC[C@H]1C(=O)N[C@@]2([C@@H](O)[C@@H]3C=CCCC3)C(=O)O[C@@]12C [SALINOSPORAMIDE B]	1600	–	640	–	27

From ChEMBL document CHEMBL1141932 (J Med Chem, 2005)
